Measurements from patent publication US10138255B2, “Piperazine derivatives as HIV protease inhibitors” (Merck Sharp & Dohme Corp., priority 2014, dated 2018).

system: HIV-1 (H9IIIB strain); assay: Cell-Based HIV Infection Assay Using a Reporter (MT4-GFP cells); details: Human immunodeficiency virus 1, inflection point (IP) of viral growth inhibition; MT4-GFP cells infected with HIV-1 H9IIIB; 50% normal human serum; mean of at least two independent experiments; read-out: Cell Based IP (50% NHS)
Experimental: Cell-Based HIV Infection Assay Using a Reporter (“Cell-Based”):
MT4-GFP cells contain a stably integrated HIV long terminal repeat promoter directing the transcription of green fluorescent protein (GFP). When HIV infects the cell, GFP is produced and the cell becomes green. MT4-GFP cells (250,000 cells/mL) were bulk-infected with HIV-1 (H9IIIB strain) at low multiplicity of infection (MOI) in RPM 1640 media, supplemented with 10% FBS for 24 h. Cells were then washed once in RPMI 1640 plus 10% FBS and resuspended in RPMI plus 50% normal human serum (NHS). Test compounds were serial-diluted in DMSO using an ECHO liquid dispenser. A control well included a combination of three HIV drugs (an inhibitor of HIV protease, integrase strand transfer and a non-nucleoside reverse transcriptase inhibitor; triple drug). The infected MT4-GFP cells were added to a 384-well poly-D-lysine coated black plate with clear bottom in which the diluted test compounds were placed. The cells were seeded in the plate at 8,000 cells per well and the final DMSO concentration was 0.4%. Infected cells were quantified at both 24 and 48 h post incubation using an Acumen eX3 plate reader. Viral reproductive ratio (R0) was determined using the number of infected cells at 48 h divided by the number of infected cells at 24 h. Percent viral growth inhibition was calculated by [1−(R−Rtripledrug)/(RDMSO−Rtripledrug)]*100. Compound potency inflection point (IP) was determined with use of a 4-parameter dose response curve analysis.
Data shown in the table reflects the mean of at least two independent experiments.

Going from `COC(=O)N[C@H](C(=O)N[C@H]1CCCC[C@@H]1CC[C@H]1CN[C@@H]2CCCS(=O)(=O)N1C2)[C@H](c1cncc(C(F)(F)F)c1)c1ccc(Cl)c(F)c1` [Example 97, methyl {(1S,2S)-2-(4-chloro-3-fluorophenyl)-1-{[(1S,2R)-2-{2-[(6R,9S)-2,2-dioxido-2-thia-1,7-diazabicyclo[4.3.1]dec-9-yl]ethyl}cyclohexyl]carbamoyl}-2-[5-(trifluoromethyl)pyridin-3-yl]ethyl}carbamate] to `N[C@H](C(=O)N[C@H]1CCC[C@@H]1CC[C@H]1CN[C@@H]2CCCS(=O)(=O)N1C2)[C@H](c1cncc(C(F)(F)F)c1)c1ccc(Cl)c(F)c1` [Example 76, (βS)-4-chloro-N-[(1S,2R)-2-{2-[(6R,9S)-2,2-dioxido-2-thia-1,7-diazabicyclo[4.3.1]dec-9-yl]ethyl}cyclopentyl]-3-fluoro-β-[5-(trifluoromethyl)pyridin-3-yl]-L-phenylalaninamide], the EC50 rises from 19 nM to 30 nM (1.6-fold).

Going from `CC(C)n1cc([C@H](c2ccc(Cl)cc2)[C@H](N)C(=O)Nc2cccc(F)c2CCC2CNC3CCCS(=O)(=O)N2C3)ccc1=O` (stereo partly drawn) [Example 95, (βS)-4-chloro-N-{2-[2-(2,2-dioxido-2-thia-1,7-diazabicyclo[4.3.1]dec-9-yl)ethyl]-3-fluorophenyl}-β-[1-(1-methylethyl)-6-oxo-1,6-dihydropyridin-3-yl]-L-phenylalaninamide] to `CC(F)(F)c1ccc([C@H](c2ccc(Cl)cc2)[C@H](N)C(=O)Nc2cncc(F)c2CC[C@H]2CN[C@@H]3CCCS(=O)(=O)N2C3)cn1` [Example 246, (2S,3R)-2-amino-3-(4-chlorophenyl)-3-(6-(1,1-difluoroethyl)pyridin-3-yl)-9-(4-(2-((6R,9S)-2,2-dioxido-2-thia-1,7-diazabicyclo[4.3.1]decan-9-yl)ethyl)-5-fluoropyridin-3-yl)propanamide], the EC50 falls from 63 nM to 19 nM (3.3-fold). The second is the more potent here.

Compared with `N[C@H](C(=O)Nc1cccc(F)c1CCC1CNC2CCCS(=O)(=O)N1C2)[C@H](CCC1CCOCC1)c1ccc(Cl)c(F)c1` (stereo partly drawn) [Example 74, (βR)-4-chloro-N-{2-[2-(2,2-dioxido-2-thia-1,7-diazabicyclo[4.3.1]dec-9-yl)ethyl]-3-fluorophenyl}-3-fluoro-β-[2-(tetrahydro-2H-pyran-4-yl)ethyl]-L-phenylalaninamide], `CCO[C@H]1CC[C@H]([C@H](c2ccc(F)cc2)[C@H](N)C(=O)Nc2cccc(F)c2CC[C@H]2CN[C@@H]3CCCS(=O)(=O)N2C3)CC1` [Example 212, (βR)-N-(2-{2-[(6R,9S)-2,2-dioxido-2-thia-1,7-diazabicyclo[4.3.1]dec-9-yl]ethyl}-3-fluorophenyl)-β-[(1r,4R)-4-ethoxycyclohexyl]-4-fluoro-L-phenylalaninamide] is 22-fold lower in EC50: 151 nM for the first, 7 nM for the second.

First: COC(=O)N[C@H](C(=O)Nc1cccc(F)c1CC[C@H]1CN[C@@H]2CCCS(=O)(=O)N1C2)[C@@H](c1ccc(Cl)cc1)[C@H]1CCO[C@@H](CC(F)(F)F)C1 [Example 8, Methyl ((1R,2S)-1-(4-chlorophenyl)-3-((2-(2-((6R,9S)-2,2-dioxido-2-thia-1,7-diazabicyclo[4.3.1]decan-9-yl)ethyl)-3-fluorophenyl)amino)-3-oxo-1-((2R,4S)-2-(2,2,2-trifluoroethyl)tetrahydro-2H-pyran-4-yl)propan-2-yl)carbamate]
Second: COC(=O)N[C@H](C(=O)Nc1cc(F)cc(F)c1CC[C@H]1CN[C@@H]2CCCS(=O)(=O)N1C2)[C@@H](c1ccc(Cl)cc1)C1CCOCC1 [Example 144, methyl [(1S,2R)-2-(4-chlorophenyl)-1-[(2-{2-[(6R,9S)-2,2-dioxido-2-thia-1,7-diazabicyclo[4.3.1]dec-9-yl]ethyl}-3,5-difluorophenyl)carbamoyl]-2-(tetrahydro-2H-pyran-4-yl)ethyl]carbamate]
The EC50 of the first is 2.4-fold lower: 8.7 nM for the first, 21 nM for the second.

Compared with `N[C@H](C(=O)Nc1cccc(F)c1CC[C@H]1CNC2CCCS(=O)(=O)N1C2)C1(c2ccc(F)cc2)CCC(F)(F)CC1` (stereo partly drawn) [Example 39, (2S)-2-amino-2-[4,4-difluoro-1-(4-fluorophenyl)cyclohexyl]-N-(2-{2-[(9S)-2,2-dioxido-2-thia-1,7-diazabicyclo[4.3.1]dec-9-yl]ethyl}-3-fluorophenyl)ethanamide], `CO[C@H]1CC[C@@](c2ccc(Cl)cc2)([C@H](N)C(=O)Nc2cccc(F)c2CC[C@H]2CN[C@@H]3CCCS(=O)(=O)N2C3)CC1` [Example 126, (2S)-2-amino-2-[cis-1-(4-chlorophenyl)-4-methoxycyclohexyl]-N-(2-{2-[(6R,9S)-2,2-dioxido-2-thia-1,7-diazabicyclo[4.3.1]dec-9-yl]ethyl}-3-fluorophenyl)ethanamide] is 3-fold higher in EC50: 200 nM for the first, 610 nM for the second.

First: N[C@H](C(=O)Nc1cccc(F)c1CCC1CNC2CCCS(=O)(=O)N1C2)[C@@H](c1ccc(F)cc1)c1ccc(C(F)(F)F)cc1 (stereo partly drawn) [Example 33, (βR)—N-{2-[2-(2,2-Dioxido-2-thia-1,7-diazabicyclo[4.3.1]dec-9-yl)ethyl]-3-fluorophenyl}-β-(4-fluorophenyl)-4-(trifluoromethyl)-L-phenylalaninamide]
Second: N[C@H](C(=O)Nc1cccc(F)c1CC[C@H]1CN[C@@H]2CCCS(=O)(=O)N1C2)[C@@H](c1ccc(F)cc1)c1cnc(C(F)(F)F)nc1 [Example 132, (βS)-N-(2-{2-[(6R,9S)-2,2-dioxido-2-thia-1,7-diazabicyclo[4.3.1]dec-9-yl]ethyl)-3-fluorophenyl)-4-fluoro-β-[2-(trifluoromethyl)pyrimidin-5-yl]-L-phenylalaninamide]
The EC50 of the first is 1.8-fold lower: 8.5 nM for the first, 15 nM for the second.

`COC(=O)N[C@H](C(=O)N[C@H]1CCCC[C@@H]1CC[C@H]1CN[C@@H]2CCCS(=O)(=O)N1C2)[C@@H](c1ccc(Cl)cc1)c1ccc(OC)nc1` [Example 98, methyl [(1S,2S)-2-(4-chlorophenyl)-1-{[(1S,2R)-2-{2-[(6R,9S)-2,2-dioxido-2-thia-1,7-diazabicyclo[4.3.1]dec-9-yl]ethyl}cyclohexyl]carbamoyl}-2-(6-methoxypyridin-3-yl)ethyl]carbamate] and `CO[C@H]1CC[C@H]([C@H](c2ccc(Cl)cc2)[C@H](N)C(=O)N[C@H]2CCCC[C@@H]2CC[C@H]2CN[C@@H]3CCCS(=O)(=O)N2C3)CC1` [Example 207, (βR)-4-chloro-N-[(1S,2R)-2-{2-[(6R,9S)-2,2-dioxido-2-thia-1,7-diazabicyclo[4.3.1]dec-9-yl]ethyl}cyclohexyl]-β-[(1r,4R)-4-methoxycyclohexyl]-L-phenylalaninamide] are within 1.5-fold of each other in EC50: 47 nM for the first, 40 nM for the second.

Going from `COC(=O)N[C@H](C(=O)Nc1cccc(F)c1CC[C@H]1CN[C@@H]2CCCCS(=O)(=O)N1C2)[C@@H](c1ccc(F)cc1)c1cc(F)cc(F)c1` [Example 277, Methyl ((1S,2S)-1-(3,5-difluorophenyl)-3-((2-(2-((7R,10S)-2,2-dioxido-2-thia-1,8-diazabicyclo[5.3.1]undecan-10-yl)ethyl)-3-fluorophenyl)amino)-1-(4-fluorophenyl)-3-oxopropan-2-yl)carbamate] to `COC(=O)N[C@H](C(=O)Nc1c(F)ccc(F)c1CC[C@H]1CN[C@@H]2CCCS(=O)(=O)N1C2)[C@@H](c1ccc(F)cc1)[C@H]1C[C@@H](C)O[C@@H](C)C1` [Example 147, methyl [(1S,2R)-2-[(2R,4r,6S)-2,6-dimethyltetrahydro-2H-pyran-4-yl]-1-[(2-{2-[(6R,9S)-2,2-dioxido-2-thia-1,7-diazabicyclo[4.3.1]dec-9-yl]ethyl}-3,6-difluorophenyl)carbamoyl]-2-(4-fluorophenyl)ethyl]carbamate], the EC50 rises from 10 nM to 22 nM (2.2-fold). The first is the more potent here.

Going from `CC1CC[C@@H]2CN([C@@H](CCc3c(F)cccc3NC(=O)[C@@H](N)[C@@H](c3ccc(F)cc3)C3C[C@@H](C)O[C@@H](C)C3)CN2)S1(=O)=O` (stereo partly drawn) [Example 110, (βR)-β-[(2R,6S)-2,6-dimethyltetrahydro-2H-pyran-4-yl]-4-fluoro-N-(3-fluoro-2-{2-[(6R,9S)-3-methyl-2,2-dioxido-2-thia-1,7-diazabicyclo[4.3.1]dec-9-yl]ethyl}phenyl)-L-phenylalaninamide] to `C[C@@H]1C[C@H]([C@H](c2ccc(F)cc2)[C@H](N)C(=O)Nc2c(F)ccc(F)c2CC[C@H]2CN[C@@H]3CCCS(=O)(=O)N2C3)C[C@H](C)O1` [Example 146, (βR)-β-[(2R,4r,6S)-2,6-dimethyltetrahydro-2H-pyran-4-yl]-N-(2-{2-[(6R,9S)-2,2-dioxido-2-thia-1,7-diazabicyclo[4.3.1]dec-9-yl]ethyl}-3,6-difluorophenyl)-4-fluoro-L-phenylalaninamide], the EC50 falls from 55 nM to 25 nM (2.2-fold).

`N[C@H](C(=O)N[C@H]1CCCC[C@@H]1CC[C@H]1CN[C@@H]2CCCS(=O)(=O)N1C2)[C@@H](c1ccc(F)cc1)C1CCOCC1` [Example 156, (βR)-N-[(1S,2R)-2-{2-[(6R,9S)-2,2-dioxido-2-thia-1,7-diazabicyclo[4.3.1]dec-9-yl]ethyl}cyclohexyl]-4-fluoro-β-(tetrahydro-2H-pyran-4-yl)-L-phenylalaninamide] gave an EC50 of 200 nM.
